Assay results taken from patent US8097656B2, “Nitrogenated trans-stilbene analogs, method for the obtention and medical applications thereof” (Dominion Pharmakine S.L, priority 2005, dated 2012).

What was measured:
MB16 cells [1] = assay: Adhesion of IL-18-treated MB16 cells to HSE cell monolayer; type: cell-based, murine; conditions: for Adhesion of MB16 cells treated with IL-18 to HSE cells (% adhered cells): 2.5 μM for 30 min prior to IL-18, control 24.4 ± 4, IL-18 alone 54 ± 6.0; for Increase of the percentage of adhesion of tumor cells to the HSE in response to IL-18 (in words): 2.5 μM for 30 minutes prior to IL-18
Text: Isolation of primary murine cultures of hepatic sinusoidal endothelial (HSE) cells. The hepatic sinusoidal cells were isolated from C57BL/6J mice (males, aged 6-8 weeks) supplied by IFFA Credo (L'Arbreole, France), followed by a purification and identification of the HSE cells following the protocol described by Vidal-Vanaclocha et al. (1993) [Vidal-Vanaclocha, F., Rocha, M., Asumendi, A. & Barbera-Guillem, E. Isolation and enrichment of two sublobular compartment-specific endothelial cell subpopulations from liver sinusoids. Hepatology, 1993, 18, 328-339]. Stable primary cultures of HSE cells were obtained after seeding the cells on a type I collagen substrate (Sigma Chemicals Co, St Louis, Mo.), and the cultures were maintained in DMEM-HCO^3−, penicillin (100 U/ml), streptomycin (100 μg/ml), supplemented with 10% fetal bovine serum at 37° C. with 5% CO2 in atmosphere at 98% humidity.
MB16 cell adhesion to the monolayer of HSE cells in culture. The endothelial cells were isolated 24 hours prior to the adhesion test and were seeded on 24-well plate, maintaining them a minimum of 4 hours in serum-free medium before incubating them with DMEM in the presence or not of MC-MB16 for 8 hours. The synthesized compounds (JE2:2 see FIG. 6; JEM2:2-01 and JEM2:1-02 see FIG. 8A; YEF02, YEF03, YEF07, YEF05B, YEF07B and YEF05H see FIG. 10) were added to a 2.5 μM concentration prior to the MC-MB16. On the other hand, the MB16 cells were marked with 40 μg/ml from the fluorescent probe BCECF-AM (carboxyfluorescein, 2′,7′-bis-(2-carboxy-ethyl)-5-(6)carboxyfluorescein aminoxymethyl ester) supplied by Molecular Probes Inc. (Oregon, USA). Afterward, a washing process was performed with DMEM-HCO3−—to remove the excess fluorochromium, the number of viable cells being calculated by means of the trypan blue exclusion test and resuspended to a concentration of 2×10^5 cells/ml. Lastly, 1 ml of the MB16 cell suspension was added to each well on the primary HSE cell culture plate. The co-culture plates were incubator-incubated at 37° C. for 8 minutes. The percentage of cellular adhesion was calculated by means of the a fluorescence measurement system described by Vidal-Vanaclocha et al. (1994) [Vidal-Vanaclocha, F., Amézaga, C., Asumendi, A., Kaplanski, G. & Dinarello, C. A. Interleukin-1 receptor blockade reduces the number and size of murine B16 melanoma hepatic metastases. Cancer Research, 1994, 54, 2667-2672]. In the experiments with IL-18, the MB16 cells were incubated with 10 ng/ml of IL-18 for 4 hours prior to being marked with BCECF-AM and were adhered to the HSE cell plate. The results in the figures are given as values related to the adhesion percentages of the untreated HSE cells.

MB16 cells [2] = assay: Hydrogen peroxide production from MB16 cells (DCFH-DA probe); type: cell-based, murine; conditions: 2.5 μM prior to IL-18; for H2O2 production by MB16 cells treated with IL-18: control 16.0 ± 3, IL-18 alone 34 ± 3.0
Description: Determination of hydrogen peroxide production from HSE and MB16 cells. Primary cultures of HSE cells were treated with 10 μg/ml of the DCFH-DA fluorescent probe for 30 minutes at 37° C. and were washed to eliminate the excess fluorochromium. Afterward, fresh culture medium was added thereto in the presence or absence of 2.5 μM of the compounds JE1:2, JE2:1 or JE2:2 and the production of H202 over the course of time was determined (see FIG. 5). The hydrogen peroxide produced by the cells oxidizes the probe, converting it into a fluorescent molecule. Thus, the cell fluorescence produced by the accumulation of DCF made it possible to detect the intracellular production of hydrogen peroxide. In each cell well, it was possible to determine the relative fluorescence value (arbitrary units of fluorescence brightness) in relation to the quantity of hydrogen peroxide produced at different incubation times. In the experiments with MB16 cells, once the cells had been marked with the DCFH-DA probe, they were incubated for 300 minutes with 2.5 μM of the azaresveratrol or JE2:2 compounds, 10 ng/ml of IL-18 (FIG. 4) then having been added.

human HSC = assay: Proliferation of human HSCs treated with MC-MA375; type: cell-based; conditions: for Increase in HSC proliferation in response to MC-A375 (in words): 12.5 μM 30 min prior to MC-A375; for Proliferation of human HSC's treated with MC-MA375 (No. cells per well): 12.5 μM, 30 min before MC-MA375, 48 h, control 2550 ± 22, treatment alone 4400 ± 30
Description: isolation of primary human cultures of hepatic sinusoidal endothelial (HSE) hepatic stellate cells (HSCs). The primary cultures of human HSE and HSC cells were obtained by non-tumoral hepatic tissue serial profusion with collagenase and pronase solutions, followed by Nycodenz gradient and seeded on 24-well plates (0.5×10^4 cells/cm^2) in DMEM. supplemented with 10% FBS.
HSC proliferation test. Primary cultured human HSC cultures were seeded (2500 cells/well/200 μl) in DMEM with 10% FBS. Once adhered, they were washed to remove the FBS and were incubated with fresh medium in the presence or absence of 12.5 μM of the azaresveratrol compound (see Table 3). Thirty (30) minutes later, conditioned media obtained from MA375 cells were added to some wells, and the plates were incubated for 48 hours in humid incubator at 37° C. with 5% CO2. Upon completion of the incubation time, the cells were fixed and were processed for counting just as previously described hereinabove.

MB16-Luc cells = assay: Hepatic retention of luciferase-transfected MB16 cells (MB16-Luc); type: in vivo, C57BL/6J mice; conditions: 2 doses of 1 mg/kg/day nasogastrically; 18 h after intrasplenic injection; control 1.80 ± 0.23
Text: Test of hepatic retention of luciferase-transfected MB16 cells (MB16-Luc) (see Table 1). B16M Cells were stably transfected by lipofection as described previously (Rubio N, Martinez-Villacampa M, Blanco J. Traffic to lymph nodes of PC-3 prostate tumor cells in nude mice visualized using the luciferase gene as a tumor cell marker. Lab Invest 1998; 78:1315-1325), using plasmid pRc/cytomegalovirus-luciferase, a construct containing the Photinus pyralis luciferase gene coding sequence under transcriptional control of the cytomegalovirus promoter and the neomycin resistance gene to the G418 antibiotic (Sigma Chemicals Co.). A total of 300,000 viable B16M-Luc cells were intrasplenically injected into C57BL/6J mice (10 mice per group) which had previously been nasogastrically administered 2 doses of 1 mg/kg/day of compound to be tested. One group of mice received resveratrol, the other group of mice received azaresveratrol. […] Production of light was measured using a luminometer designed to read individual samples tubes (bioorbit, LKB Wallac; Turku, Finland) after the addition of 100 μl of luciferase assay reagent to 20 μl of each liver homogenate. […] Linearity and sensitivity of light detection in liver homogenates and influence of hepatic microenvironment on luciferase activity of B16M-Luc were also evaluated as described previously (Rubio et al, 1998).

Row | Structure (SMILES) | Adhesion of MB16 cells treated with IL-18 to HSE cells (% adhered cells) (MB16 cells [1]) | Increase of the percentage of adhesion of tumor cells to the HSE in response to IL-18 (in words) (MB16 cells [1]) | Increase of H2O2 production of MB16 cells in response to IL-18 (in words) (MB16 cells [2]) | H2O2 production by MB16 cells treated with IL-18 (MB16 cells [2]) | Increase in HSC proliferation in response to MC-A375 (in words) (human HSC) | Proliferation of human HSC's treated with MC-MA375 (No. cells per well) (human HSC) | Hepatic retention of MB16 Luc cells (No. cells × 10^6) (MB16-Luc cells)
1 | Oc1ccc(C=Cc2cc(O)cc(O)c2)cc1 [resveratrol, reference compound] | 30 ± 4.0 % adhered cells | significantly (P<0.01) inhibited | significantly (P<0.01) inhibited | 12 ± 1.0 | abrogated | 2250 ± 100 No. cells per well | 1.05 ± 0.3 No. cells × 10^6
2 | Oc1ccc(/N=C/c2cc(O)cc(O)c2)cc1 [azaresveratrol, 5-((E)-(4-Hydroxyphenylimino)methyl)benzene-1,3-diol] | 31 ± 4.0 % adhered cells | significantly (P<0.01) inhibited | significantly (P<0.01) inhibited | 10 ± 2.0 | abrogated | 2600 ± 60 No. cells per well | 0.98 ± 0.24 No. cells × 10^6
